Reference: ChEMBL document CHEMBL1201862, “PubChem BioAssay data set” (2004)
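Five compound concentrations were applied to cells in 96-well plates for 48 hours; endpoints were derived by simple linear interpolation of the resulting dose-response curve. GI50 is the concentration that inhibits growth by half.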 Activity calls are given as the source filed them. Rule as the data show it: active = GI50 up to about 1.1 µM and inactive = higher.

Assays:
Assay in all cases: NCI-60 cell line screen, 48 h
CAKI-1 = tested on: CAKI-1
DU-145 = tested on: DU-145
HCT-15 = tested on: HCT-15
Hs-578T = tested on: Hs-578T
K562 = tested on: K562
M14 = tested on: M14
MDA-MB-231 = tested on: MDA-MB-231
MDA-MB-435 = tested on: MDA-MB-435
MDA-N = tested on: MDA-N
Malme-3M = tested on: Malme-3M
NCI-H460 = tested on: NCI-H460
OVCAR-5 = tested on: OVCAR-5
RPMI-8226 = tested on: RPMI-8226
RXF 393 = tested on: RXF 393
SF-268 = tested on: SF-268
SK-MEL-28 = tested on: SK-MEL-28
SN12C = tested on: SN12C
SW-620 = tested on: SW-620
U-251 = tested on: U-251
SR = tested on: SR

| SMILES | GI50 (CAKI-1) | GI50 (DU-145) | GI50 (HCT-15) [µM] | GI50 (Hs-578T) | GI50 (K562) | GI50 (M14) | GI50 (MDA-MB-231) | GI50 (MDA-MB-435) | GI50 (MDA-N) | GI50 (Malme-3M) | GI50 (NCI-H460) | GI50 (OVCAR-5) | GI50 (RPMI-8226) | GI50 (RXF 393) | GI50 (SF-268) | GI50 (SK-MEL-28) | GI50 (SN12C) | GI50 (SW-620) | GI50 (U-251) | GI50 (SR) |
| --- | --- | --- | --- | --- | --- | --- | --- | --- | --- | --- | --- | --- | --- | --- | --- | --- | --- | --- | --- | --- |
| CCC(=O)NCCc1c2c3c(ccnc3c3ncsc13)-c1ccccc1N2 [KUANONIAMINE C] | 5.74 µM (inactive) | 0.603 µM (active) | 2.51 | 0.368 µM (active) | 1.53 µM (inactive) | 2.73 µM (inactive) | 4.02 µM (inactive) | 2.26 µM (inactive) | 0.324 µM (active) | 2.62 µM (inactive) | 1.16 µM (inactive) | 8.17 µM (inactive) | 0.401 µM (active) | 4.16 µM (inactive) | 1.45 µM (inactive) | 2.56 µM (inactive) | 0.724 µM (active) | 1.18 µM (inactive) | 1.41 µM (inactive) |  |
| Cc1[nH]c2c(C)ccc(C)c2c1CC(=O)O | 43 µM (inactive) | > 100 µM (inactive) | 53.5 | 25.2 µM (inactive) | 34.4 µM (inactive) | 41 µM (inactive) | 13 µM (inactive) | 42.3 µM (inactive) | 31.5 µM (inactive) | 37.7 µM (inactive) | 31 µM (inactive) | > 100 µM (inactive) | 25.7 µM (inactive) | > 100 µM (inactive) | 44.2 µM (inactive) | 61.8 µM (inactive) | 34.3 µM (inactive) | 42.9 µM (inactive) | 35.9 µM (inactive) |  |
| CCCCCC/C=C\CCCCCCCCCc1c(O)c(OC)cc(O)c1CN(C)C | 13.8 µM (inactive) | 17.9 µM (inactive) | 3.01 | 2.7 µM (inactive) | 1.73 µM (inactive) | 11.4 µM (inactive) | 14.5 µM (inactive) | 6.64 µM (inactive) | 13 µM (inactive) |  | 3.67 µM (inactive) | 14.5 µM (inactive) | 2.44 µM (inactive) |  | > 10 µM (inactive) | 13.2 µM (inactive) | 4.83 µM (inactive) | 2.93 µM (inactive) | 3.73 µM (inactive) | 0.692 µM (active) |
| FC(F)(F)C1(C(F)(F)F)OC(Cl)(Cl)C(Cl)(Cl)O1 | > 10 µM (inactive) | > 10 µM (inactive) | > 10 | > 10 µM (inactive) |  | > 10 µM (inactive) | > 10 µM (inactive) | > 10 µM (inactive) | > 10 µM (inactive) | > 10 µM (inactive) | > 10 µM (inactive) | > 10 µM (inactive) |  | > 10 µM (inactive) | > 10 µM (inactive) | > 10 µM (inactive) |  | > 10 µM (inactive) | > 10 µM (inactive) |  |
| O=C1C=C(C2=CC(=O)C(=O)c3ccccc32)c2ccccc2C1=O | 22 µM (inactive) | 14.9 µM (inactive) | 11.8 | 27.7 µM (inactive) | 3.3 µM (inactive) | 6.46 µM (inactive) | 15.6 µM (inactive) | 1.93 µM (inactive) | 2.02 µM (inactive) | 3.44 µM (inactive) |  | 18.8 µM (inactive) | 6.17 µM (inactive) | 10.9 µM (inactive) | 13.5 µM (inactive) | 4.26 µM (inactive) | 27 µM (inactive) | 5.01 µM (inactive) | 5.47 µM (inactive) |  |
| COc1ccc(/C(C)=N/NC(=S)N(C)C)c(O)c1 | 4.92 µM (inactive) | 11.5 µM (inactive) |  | 53.1 µM (inactive) |  | 2.72 µM (inactive) | 5.96 µM (inactive) | 27.7 µM (inactive) | 16 µM (inactive) |  | 14 µM (inactive) | 3.42 µM (inactive) | 7.74 µM (inactive) |  | 12 µM (inactive) | 16.6 µM (inactive) | 11.7 µM (inactive) | 5.28 µM (inactive) | 7.83 µM (inactive) | 36.3 µM (inactive) |
